EP0223385B1, “8-Azabicyclo[3,2,1]octane and 9-azabicyclo[3,3,1]nonane derivatives” (BEECHAM GROUP PLC, priority 1985, dated 1987)
Structures can show the parent of a compound that is named as a salt.

System: von Bezold-Jarisch reflex evoked by 5-HT
Assay: Antagonism of the von Bezold-Jarisch reflex evoked by 5-HT in the anaesthetised rat
Assay type: in vivo
Settings: iv, anaesthetised male rats, compounds given intravenously, dose reducing the 5-HT-evoked (usually 6µg/kg i.v.) heart rate response to 50% of control, read-out: ED₅₀
Method: The compounds were evaluated for antagonism of the von Bezold-Jarisch reflex evoked by 5-HT in the anaesthetised rat according to the following method:
Male rats 250-350g, were anaesthetised with urethane (1.25g/kg intraperitoneally) and blood pressure and heart rate recorded as described by Fozard J.R. et al., J. Cardiovasc. Pharmacol. 2, 229-245 (1980). A submaximal dose of 5-HT (usually 6µg/kg) was given repeatedly by the intravenous route and changes in heart rate quantified. Compounds were given intravenously and the concentration required to reduce the 5 HT-evoked response to 50% of the control response (ED₅₀) was then determined.

Compound | ED50
CN1[C@@H]2CC[C@H]1C[C@@H](OC(=O)c1nn(C)c3ccccc13)C2 [Compound 1, 1-Methyl-3-indazolecarboxylic acid (endo-8-methyl-8-azabicyclo[3,2,1]oct-3-yl)ester monohydrochloride] | 1.4 µg/kg
CN1[C@@H]2CCC[C@H]1C[C@@H](NC(=O)c1nn(C)c3ccccc13)C2 [Compound 2, N-(Endo-9-methyl-9-azabicyclo[3,3,1]non-3-yl)-1-methylindazole-3-carboxamide monohydrochloride] | 0.7 µg/kg
